Calls of active or inactive are those of the source. The calls are words filed in the database; no cut-off is given here.
Tests used:
Assay type in all cases: functional
[1] = Antioxidant activity assessed as decrease in hydroxyl radical-induced oxidation of DNA measured TBARS production at 400 uM after 30 min by spectrophotometric analysis relative to control; parameters: scale not given: the % may be the effect or the level left
[2] = Antioxidant activity assessed as decrease in Cu2+/GSH-induced oxidation of DNA measured TBARS production at 400 uM after 90 min by spectrophotometric analysis relative to control; parameters: scale not given: the % may be the effect or the level left
[3] = Antioxidant activity assessed as decrease in AAPH-induced oxidation of DNA measured TBARS production at 400 uM after 15 min by spectrophotometric analysis
[4] = Antioxidant activity assessed as decrease in AAPH-induced oxidation of DNA measured TBARS production at 100 to 400 uM after 15 min by spectrophotometric analysis

SMILES	Activity [1]	Activity [2]	Activity [3]	Activity [4]
Cc1c2c(nc3c(O)cccc13)OCC2	90.8%	92.2%	–	–
Cc1c2c(nc3ccccc13)OCC2	95.1%	96.6%	inactive	–
Cc1c2c(nc3cc(O)ccc13)OCC2	95.1%	93.5%	–	Active
Cc1c2c(nc3ccc(O)cc13)OCC2	88.4%	92.9%	–	–

From ChEMBL document CHEMBL3046482, “Facile synthesis of furoquinoline and effects on radical-induced oxidation of DNA” (Med Chem Res, 2013)
